Data published in PubChem BioAssay (NCI).
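Dose response: 5 concentrations. Exposure: 48 h. Format: 96-well plates. Endpoint: linear interpolation; highest concentration if not reached. TGI: total growth inhibition.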

Experiments:
Test in all cases: NCI-60 cell line screen, 48 h
SF-268 CNS = test system: SF-268 CNS
MALME-3M melanoma = test system: MALME-3M melanoma
SK-MEL-2 melanoma = test system: SK-MEL-2 melanoma
OVCAR-4 ovarian = test system: OVCAR-4 ovarian
786-0 renal = test system: 786-0 renal
OVCAR-3 ovarian = test system: OVCAR-3 ovarian
UO-31 renal = test system: UO-31 renal
NCI-H23 lung = test system: NCI-H23 lung
OVCAR-8 ovarian = test system: OVCAR-8 ovarian
HOP-92 NSCLC = test system: HOP-92 NSCLC
OVCAR-5 ovarian = test system: OVCAR-5 ovarian
ACHN renal = test system: ACHN renal
TK-10 renal = test system: TK-10 renal
SK-OV-3 ovarian = test system: SK-OV-3 ovarian
SK-MEL-28 melanoma = test system: SK-MEL-28 melanoma
T-47D breast = test system: T-47D breast
NCI/ADR-RES ovarian = test system: NCI/ADR-RES ovarian
PC-3 prostate = test system: PC-3 prostate
MDA-MB-231 breast = test system: MDA-MB-231 breast

Row | SMILES | TGI (SF-268 CNS) | TGI (MALME-3M melanoma) | TGI (SK-MEL-2 melanoma) | TGI (OVCAR-4 ovarian) | TGI (786-0 renal) | TGI (OVCAR-3 ovarian) | TGI (UO-31 renal) | TGI (NCI-H23 lung) | TGI (OVCAR-8 ovarian) | TGI (HOP-92 NSCLC) | TGI (OVCAR-5 ovarian) | TGI (ACHN renal) | TGI (TK-10 renal) | TGI (SK-OV-3 ovarian) | TGI (SK-MEL-28 melanoma) | TGI (T-47D breast) | TGI (NCI/ADR-RES ovarian) | TGI (PC-3 prostate) | TGI (MDA-MB-231 breast)
1 | COc1cc2c(oc(=O)c3c4occc4cc(OC)c23)c2cccc(OCc3ccccc3)c12 | > 100 µM | > 100 µM | > 100 µM | > 100 µM | > 100 µM | > 100 µM | > 100 µM | > 100 µM | > 100 µM | > 100 µM | > 100 µM | > 100 µM | > 100 µM | > 100 µM | > 100 µM |  |  |  | 
2 | O=C(O)[C@@H]1OCCOCCO[C@@H](C(=O)O)[C@H](C(=O)O)OCCOCCO[C@H]1C(=O)O | > 100 µM | > 100 µM | > 100 µM | > 100 µM | > 100 µM | > 100 µM | > 100 µM | > 100 µM | > 100 µM | > 100 µM | > 100 µM | > 100 µM | > 100 µM | > 100 µM | > 100 µM |  |  |  | 
3 | O=c1[nH]nc(-c2ccccc2)n1/N=C/c1ccco1 | > 100 µM | > 100 µM | > 100 µM | > 100 µM | > 100 µM | > 100 µM | > 100 µM | > 100 µM | > 100 µM | > 100 µM | > 100 µM | > 100 µM | > 100 µM | > 100 µM | > 100 µM | > 100 µM | > 100 µM | > 100 µM | 
4 | COc1cc2oc(=O)cc(C)c2c(OC)c1O | > 100 µM | > 100 µM | > 100 µM | > 100 µM | > 100 µM | > 100 µM | > 100 µM | > 100 µM | > 100 µM |  | > 100 µM | > 100 µM | > 100 µM | > 100 µM | > 100 µM |  | > 100 µM | > 100 µM | > 100 µM
5 | O=C(c1ccco1)N(C(=S)N1CCN(c2ccccc2)CC1)C1CCCCC1 | > 100 µM | > 100 µM | > 100 µM | > 100 µM | > 100 µM | > 100 µM | > 100 µM | > 100 µM | > 100 µM | > 100 µM | > 100 µM | > 100 µM | > 100 µM | > 100 µM |  |  |  |  | 
6 | O=C1CNC(=O)/C(=C/c2c[nH]c3ccccc23)N1 | > 100 µM | > 100 µM | > 100 µM | > 100 µM | > 100 µM | > 100 µM | > 100 µM | > 100 µM | > 100 µM | > 100 µM | > 100 µM | > 100 µM | > 100 µM | > 100 µM | > 100 µM | > 100 µM | > 100 µM | > 100 µM | 
7 | C[C@@H]1[C@H](O)CC2=C(CC[C@@H](O)C2(C)C)[C@@]1(CO)CCc1ccoc1 |  | > 50 µM | > 50 µM | > 50 µM | > 50 µM | > 50 µM | > 50 µM | > 50 µM | > 50 µM | > 50 µM | > 50 µM | > 50 µM | > 50 µM | > 50 µM | > 50 µM |  | > 50 µM | > 50 µM | > 50 µM
8 | Cc1ccc(S(=O)(=O)N2CCCSCCSCCCN(S(=O)(=O)c3ccc(C)cc3)CC2)cc1 | > 100 µM |  | > 100 µM | > 100 µM | > 100 µM | > 100 µM | > 100 µM | > 100 µM | > 100 µM |  | > 100 µM | > 100 µM | > 100 µM | > 100 µM | > 100 µM | > 100 µM | > 100 µM |  | > 100 µM
9 | CCO/S(=N/S(=O)(=O)c1ccccc1)c1ccccc1[N+](=O)[O-] (centres undefined) | > 100 µM | > 100 µM | > 100 µM | > 100 µM | > 100 µM | > 100 µM | > 100 µM | > 100 µM | > 100 µM |  | > 100 µM |  |  | > 100 µM | > 100 µM |  |  |  | 
10 | [N-]=[N+]=NC1(c2ccccc2)C(=O)C(Cl)=C(c2ccccc2)N(c2ccccc2)C1=O (centres undefined) | > 100 µM | > 100 µM | > 100 µM | > 100 µM | > 100 µM | > 100 µM | > 100 µM | > 100 µM | > 100 µM | > 100 µM | > 100 µM | > 100 µM | > 100 µM | 78.6 µM | > 100 µM |  |  |  | 
11 | Cc1csc(NNC(N)=O)n1 | > 100 µM |  | > 100 µM | > 100 µM | > 100 µM | > 100 µM | > 100 µM | > 100 µM | > 100 µM | > 100 µM | > 100 µM | > 100 µM | > 100 µM | > 100 µM | > 100 µM |  | > 100 µM | > 100 µM | > 100 µM
12 | CCOC(=O)C(C)Sc1nnc(COc2ccc(Cl)cc2)n1-c1ccccc1 (centres undefined) | 34.7 µM | 63.6 µM | 28.4 µM | 42.6 µM | 71.2 µM | 33.5 µM | 28 µM | 42.7 µM | 60 µM | 44 µM | 94.8 µM | 31.6 µM | 69.9 µM | > 100 µM | 49.2 µM |  |  |  | 
13 | O=C(c1cccc2ccccc12)C1S(=O)(=O)OCCOS1(=O)=O |  | > 100 µM | > 100 µM | > 100 µM | > 100 µM | > 100 µM | > 100 µM | > 100 µM | > 100 µM |  | > 100 µM | > 100 µM | > 100 µM |  | > 100 µM |  | > 100 µM | > 100 µM | > 100 µM
14 | CCOC(=O)/C(=C\NC(C)(C)C)c1nc2ccccc2[nH]1 | 55.9 µM | 39.4 µM |  | 59.6 µM | 72 µM | 35 µM | 41.3 µM | 35.9 µM | 64.2 µM | 56.8 µM | 55.9 µM | 40.9 µM | 47.6 µM | 78.8 µM | 34.6 µM |  | 92.1 µM |  | 
